Drawing on PubChem BioAssay AID2060501 (Molecular Pharmacology Branch, DTP, NCI, 2025), this text covers viability, T/C for four compounds.
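Also: spheroids exposed to compounds for 7 days before readout; percent of vehicle DMSO control viability with 100% = untreated-like growth.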

The first assay relates to 282377-053-R-J1-PDC complex spheroids, viability. Briefly: Anticancer human tumor 282377-053-R-J1-PDC patient-derived colon adenocarcinoma cell line growth inhibition [GQUAD]. Particulars: second compound 3.16 µM; first compound 0.1 µM; active compounds read low. In a few lines: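 Tumor cells were grown as complex spheroids with HUVEC endothelial cells and mesenchymal stem cells as stroma. G-quadruplex stabilizers were combined with targeted agents over half-log dilutions from near the clinical Cmax, or from 10 microM.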
For the compound `COc1ncnc(C2CC2)c1-c1ncc2cnn(Cc3ccc(-c4nc(C(F)(F)F)cn4C(C)C)cc3)c2n1` + Cc1cnc(CNC(=O)c2c(=O)c3ccc(N4CCCN(C)CC4)nc3n3c2sc2ccccc23)cn1, the viability, T/C was 49.2%.
With `O=C(NO)c1cnc(N2CCN(S(=O)(=O)c3ccc4ccccc4c3)CC2)nc1` + Cc1cnc(CNC(=O)c2c(=O)c3ccc(N4CCCN(C)CC4)nc3n3c2sc2ccccc23)cn1, the viability, T/C is 53.3%.

Staying with this assay, now noted: second compound 3.16 µM; first compound 0.316 µM; active compounds read low.
In the case of `C=CCn1c(=O)c2cnc(Nc3ccc(N4CCN(C)CC4)cc3)nc2n1-c1cccc(C(C)(C)O)n1` + Cc1cnc(CNC(=O)c2c(=O)c3ccc(N4CCCN(C)CC4)nc3n3c2sc2ccccc23)cn1, the viability, T/C is 45.4%.
Take `CC(C)(O)C1CCC(Nc2ccc3ncc(-c4cccc(C(F)(F)F)c4)n3n2)CC1` (configuration not stated) + Cc1cnc(CNC(=O)c2c(=O)c3ccc(N4CCCN(C)CC4)nc3n3c2sc2ccccc23)cn1: the viability, T/C was 42%.
Turning to `COc1ncnc(C2CC2)c1-c1ncc2cnn(Cc3ccc(-c4nc(C(F)(F)F)cn4C(C)C)cc3)c2n1` + Cc1cnc(CNC(=O)c2c(=O)c3ccc(N4CCCN(C)CC4)nc3n3c2sc2ccccc23)cn1, the viability, T/C is 49.2%.
For `O=C(NO)c1cnc(N2CCN(S(=O)(=O)c3ccc4ccccc4c3)CC2)nc1` + Cc1cnc(CNC(=O)c2c(=O)c3ccc(N4CCCN(C)CC4)nc3n3c2sc2ccccc23)cn1, the viability, T/C is 22.9%.

The assay is the same for the next values; noted with them: second compound 3.16 µM; first compound 1 µM; active compounds read low.
Regarding `C=CCn1c(=O)c2cnc(Nc3ccc(N4CCN(C)CC4)cc3)nc2n1-c1cccc(C(C)(C)O)n1` + Cc1cnc(CNC(=O)c2c(=O)c3ccc(N4CCCN(C)CC4)nc3n3c2sc2ccccc23)cn1, the viability, T/C was 42%.
Still for that read-out and setting: the same measure for `CC(C)(O)C1CCC(Nc2ccc3ncc(-c4cccc(C(F)(F)F)c4)n3n2)CC1` (configuration not stated) + Cc1cnc(CNC(=O)c2c(=O)c3ccc(N4CCCN(C)CC4)nc3n3c2sc2ccccc23)cn1: 34.3%; for `COc1ncnc(C2CC2)c1-c1ncc2cnn(Cc3ccc(-c4nc(C(F)(F)F)cn4C(C)C)cc3)c2n1` + Cc1cnc(CNC(=O)c2c(=O)c3ccc(N4CCCN(C)CC4)nc3n3c2sc2ccccc23)cn1: 49.7%.
With `O=C(NO)c1cnc(N2CCN(S(=O)(=O)c3ccc4ccccc4c3)CC2)nc1` + Cc1cnc(CNC(=O)c2c(=O)c3ccc(N4CCCN(C)CC4)nc3n3c2sc2ccccc23)cn1, the viability, T/C was 0.12%.

Staying with this assay, now noted: second compound 3.16 µM; first compound 3.16 µM; active compounds read low.
`C=CCn1c(=O)c2cnc(Nc3ccc(N4CCN(C)CC4)cc3)nc2n1-c1cccc(C(C)(C)O)n1` + Cc1cnc(CNC(=O)c2c(=O)c3ccc(N4CCCN(C)CC4)nc3n3c2sc2ccccc23)cn1: the viability, T/C was 26.2%.
Consider `CC(C)(O)C1CCC(Nc2ccc3ncc(-c4cccc(C(F)(F)F)c4)n3n2)CC1` (configuration not stated) + Cc1cnc(CNC(=O)c2c(=O)c3ccc(N4CCCN(C)CC4)nc3n3c2sc2ccccc23)cn1, for which the viability, T/C is 0.13%.
As to `COc1ncnc(C2CC2)c1-c1ncc2cnn(Cc3ccc(-c4nc(C(F)(F)F)cn4C(C)C)cc3)c2n1` + Cc1cnc(CNC(=O)c2c(=O)c3ccc(N4CCCN(C)CC4)nc3n3c2sc2ccccc23)cn1, the viability, T/C was 52.8%.
`O=C(NO)c1cnc(N2CCN(S(=O)(=O)c3ccc4ccccc4c3)CC2)nc1` + Cc1cnc(CNC(=O)c2c(=O)c3ccc(N4CCCN(C)CC4)nc3n3c2sc2ccccc23)cn1: the viability, T/C is 0.1%.

The same assay, now with this note: second compound 3.16 µM; first compound 10 µM; active compounds read low.
Regarding `C=CCn1c(=O)c2cnc(Nc3ccc(N4CCN(C)CC4)cc3)nc2n1-c1cccc(C(C)(C)O)n1` + Cc1cnc(CNC(=O)c2c(=O)c3ccc(N4CCCN(C)CC4)nc3n3c2sc2ccccc23)cn1, the viability, T/C was 12.1%.
Take `CC(C)(O)C1CCC(Nc2ccc3ncc(-c4cccc(C(F)(F)F)c4)n3n2)CC1` (configuration not stated) + Cc1cnc(CNC(=O)c2c(=O)c3ccc(N4CCCN(C)CC4)nc3n3c2sc2ccccc23)cn1: the viability, T/C is 0.15%.
`COc1ncnc(C2CC2)c1-c1ncc2cnn(Cc3ccc(-c4nc(C(F)(F)F)cn4C(C)C)cc3)c2n1` + Cc1cnc(CNC(=O)c2c(=O)c3ccc(N4CCCN(C)CC4)nc3n3c2sc2ccccc23)cn1: the viability, T/C was 47.1%.
`O=C(NO)c1cnc(N2CCN(S(=O)(=O)c3ccc4ccccc4c3)CC2)nc1` + Cc1cnc(CNC(=O)c2c(=O)c3ccc(N4CCCN(C)CC4)nc3n3c2sc2ccccc23)cn1: the viability, T/C was 0.15%.

Still in this assay, the particulars now being: second compound 10 µM; first compound 0.0316 µM; active compounds read low.
On to `C=CCn1c(=O)c2cnc(Nc3ccc(N4CCN(C)CC4)cc3)nc2n1-c1cccc(C(C)(C)O)n1` + Cc1cnc(CNC(=O)c2c(=O)c3ccc(N4CCCN(C)CC4)nc3n3c2sc2ccccc23)cn1, for which the viability, T/C was 44.4%.
Regarding `CC(C)(O)C1CCC(Nc2ccc3ncc(-c4cccc(C(F)(F)F)c4)n3n2)CC1` (configuration not stated) + Cc1cnc(CNC(=O)c2c(=O)c3ccc(N4CCCN(C)CC4)nc3n3c2sc2ccccc23)cn1, the viability, T/C is 34.2%.
As to `COc1ncnc(C2CC2)c1-c1ncc2cnn(Cc3ccc(-c4nc(C(F)(F)F)cn4C(C)C)cc3)c2n1` + Cc1cnc(CNC(=O)c2c(=O)c3ccc(N4CCCN(C)CC4)nc3n3c2sc2ccccc23)cn1, the viability, T/C is 41.1%.
With `O=C(NO)c1cnc(N2CCN(S(=O)(=O)c3ccc4ccccc4c3)CC2)nc1` + Cc1cnc(CNC(=O)c2c(=O)c3ccc(N4CCCN(C)CC4)nc3n3c2sc2ccccc23)cn1, the viability, T/C was 36.9%.

Still in this assay, the particulars now being: second compound 10 µM; first compound 0.1 µM; active compounds read low.
As for `C=CCn1c(=O)c2cnc(Nc3ccc(N4CCN(C)CC4)cc3)nc2n1-c1cccc(C(C)(C)O)n1` + Cc1cnc(CNC(=O)c2c(=O)c3ccc(N4CCCN(C)CC4)nc3n3c2sc2ccccc23)cn1, the viability, T/C is 48.5%.
For the compound `CC(C)(O)C1CCC(Nc2ccc3ncc(-c4cccc(C(F)(F)F)c4)n3n2)CC1` (configuration not stated) + Cc1cnc(CNC(=O)c2c(=O)c3ccc(N4CCCN(C)CC4)nc3n3c2sc2ccccc23)cn1, the viability, T/C was 21.1%.
For the compound `COc1ncnc(C2CC2)c1-c1ncc2cnn(Cc3ccc(-c4nc(C(F)(F)F)cn4C(C)C)cc3)c2n1` + Cc1cnc(CNC(=O)c2c(=O)c3ccc(N4CCCN(C)CC4)nc3n3c2sc2ccccc23)cn1, the viability, T/C was 45.2%.
The same measure, in the same setting: the same measure for `O=C(NO)c1cnc(N2CCN(S(=O)(=O)c3ccc4ccccc4c3)CC2)nc1` + Cc1cnc(CNC(=O)c2c(=O)c3ccc(N4CCCN(C)CC4)nc3n3c2sc2ccccc23)cn1: 9.96%.

The assay is the same for the next values; noted with them: second compound 10 µM; first compound 0.316 µM; active compounds read low.
On to `C=CCn1c(=O)c2cnc(Nc3ccc(N4CCN(C)CC4)cc3)nc2n1-c1cccc(C(C)(C)O)n1` + Cc1cnc(CNC(=O)c2c(=O)c3ccc(N4CCCN(C)CC4)nc3n3c2sc2ccccc23)cn1, for which the viability, T/C is 43.1%.
Consider `CC(C)(O)C1CCC(Nc2ccc3ncc(-c4cccc(C(F)(F)F)c4)n3n2)CC1` (configuration not stated) + Cc1cnc(CNC(=O)c2c(=O)c3ccc(N4CCCN(C)CC4)nc3n3c2sc2ccccc23)cn1, for which the viability, T/C is 12.3%.
In the case of `COc1ncnc(C2CC2)c1-c1ncc2cnn(Cc3ccc(-c4nc(C(F)(F)F)cn4C(C)C)cc3)c2n1` + Cc1cnc(CNC(=O)c2c(=O)c3ccc(N4CCCN(C)CC4)nc3n3c2sc2ccccc23)cn1, the viability, T/C is 46.5%.
Regarding `O=C(NO)c1cnc(N2CCN(S(=O)(=O)c3ccc4ccccc4c3)CC2)nc1` + Cc1cnc(CNC(=O)c2c(=O)c3ccc(N4CCCN(C)CC4)nc3n3c2sc2ccccc23)cn1, the viability, T/C was 0.28%.

The assay is the same for the next values; noted with them: second compound 10 µM; first compound 1 µM; active compounds read low.
For `C=CCn1c(=O)c2cnc(Nc3ccc(N4CCN(C)CC4)cc3)nc2n1-c1cccc(C(C)(C)O)n1` + Cc1cnc(CNC(=O)c2c(=O)c3ccc(N4CCCN(C)CC4)nc3n3c2sc2ccccc23)cn1, the viability, T/C was 36.6%.
Same read-out and setting: then `CC(C)(O)C1CCC(Nc2ccc3ncc(-c4cccc(C(F)(F)F)c4)n3n2)CC1` (configuration not stated) + Cc1cnc(CNC(=O)c2c(=O)c3ccc(N4CCCN(C)CC4)nc3n3c2sc2ccccc23)cn1, with 0.24%; and `COc1ncnc(C2CC2)c1-c1ncc2cnn(Cc3ccc(-c4nc(C(F)(F)F)cn4C(C)C)cc3)c2n1` + Cc1cnc(CNC(=O)c2c(=O)c3ccc(N4CCCN(C)CC4)nc3n3c2sc2ccccc23)cn1, with 46.6%; and `O=C(NO)c1cnc(N2CCN(S(=O)(=O)c3ccc4ccccc4c3)CC2)nc1` + Cc1cnc(CNC(=O)c2c(=O)c3ccc(N4CCCN(C)CC4)nc3n3c2sc2ccccc23)cn1, with 0.24%.

Still in this assay, the particulars now being: second compound 10 µM; first compound 3.16 µM; active compounds read low.
As to `C=CCn1c(=O)c2cnc(Nc3ccc(N4CCN(C)CC4)cc3)nc2n1-c1cccc(C(C)(C)O)n1` + Cc1cnc(CNC(=O)c2c(=O)c3ccc(N4CCCN(C)CC4)nc3n3c2sc2ccccc23)cn1, the viability, T/C is 1.31%.
In the case of `CC(C)(O)C1CCC(Nc2ccc3ncc(-c4cccc(C(F)(F)F)c4)n3n2)CC1` (configuration not stated) + Cc1cnc(CNC(=O)c2c(=O)c3ccc(N4CCCN(C)CC4)nc3n3c2sc2ccccc23)cn1, the viability, T/C is 0.89%.
For `COc1ncnc(C2CC2)c1-c1ncc2cnn(Cc3ccc(-c4nc(C(F)(F)F)cn4C(C)C)cc3)c2n1` + Cc1cnc(CNC(=O)c2c(=O)c3ccc(N4CCCN(C)CC4)nc3n3c2sc2ccccc23)cn1, the viability, T/C was 50.3%.
Same read-out and setting: the same measure for `O=C(NO)c1cnc(N2CCN(S(=O)(=O)c3ccc4ccccc4c3)CC2)nc1` + Cc1cnc(CNC(=O)c2c(=O)c3ccc(N4CCCN(C)CC4)nc3n3c2sc2ccccc23)cn1: 0.17%.

The assay is the same for the next values; noted with them: second compound 10 µM; first compound 10 µM; active compounds read low.
As to `C=CCn1c(=O)c2cnc(Nc3ccc(N4CCN(C)CC4)cc3)nc2n1-c1cccc(C(C)(C)O)n1` + Cc1cnc(CNC(=O)c2c(=O)c3ccc(N4CCCN(C)CC4)nc3n3c2sc2ccccc23)cn1, the viability, T/C was 0.34%.
As for `CC(C)(O)C1CCC(Nc2ccc3ncc(-c4cccc(C(F)(F)F)c4)n3n2)CC1` (configuration not stated) + Cc1cnc(CNC(=O)c2c(=O)c3ccc(N4CCCN(C)CC4)nc3n3c2sc2ccccc23)cn1, the viability, T/C was 0.2%.
For `COc1ncnc(C2CC2)c1-c1ncc2cnn(Cc3ccc(-c4nc(C(F)(F)F)cn4C(C)C)cc3)c2n1` + Cc1cnc(CNC(=O)c2c(=O)c3ccc(N4CCCN(C)CC4)nc3n3c2sc2ccccc23)cn1, the viability, T/C is 35.6%.
With `O=C(NO)c1cnc(N2CCN(S(=O)(=O)c3ccc4ccccc4c3)CC2)nc1` + Cc1cnc(CNC(=O)c2c(=O)c3ccc(N4CCCN(C)CC4)nc3n3c2sc2ccccc23)cn1, the viability, T/C is 0.2%.
